# From PubChem BioAssay (NCI)
#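 GI50: concentration for 50% inhibition of growth. TGI: concentration producing complete growth inhibition.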
# Key:
# Experiment in all cases: NCI-60 cell line screen, 384-well format
# CCRF-CEM leukemia = system: CCRF-CEM leukemia
# BT-549 breast = system: BT-549 breast
# DU-145 prostate = system: DU-145 prostate
# SK-OV-3 ovarian = system: SK-OV-3 ovarian
# PC-3 prostate = system: PC-3 prostate
# SW-620 colon = system: SW-620 colon
# HCT-15 colon = system: HCT-15 colon
# HOP-62 NSCLC = system: HOP-62 NSCLC
# NCI-H522 lung = system: NCI-H522 lung
# OVCAR-4 ovarian = system: OVCAR-4 ovarian
# MOLT-4 leukemia = system: MOLT-4 leukemia
# HS 578T breast = system: HS 578T breast
# HCT-116 colon = system: HCT-116 colon
# M14 melanoma = system: M14 melanoma
# CAKI-1 renal = system: CAKI-1 renal
# NCI/ADR-RES ovarian = system: NCI/ADR-RES ovarian
# NCI-H226 lung = system: NCI-H226 lung
# MALME-3M melanoma = system: MALME-3M melanoma
# MDA-MB-435 melanoma = system: MDA-MB-435 melanoma
# K-562 leukemia = system: K-562 leukemia
# UACC-257 melanoma = system: UACC-257 melanoma
# SR leukemia = system: SR leukemia
# MCF7 breast = system: MCF7 breast
# HL-60(TB) leukemia = system: HL-60(TB) leukemia
# RPMI-8226 leukemia = system: RPMI-8226 leukemia
# T-47D breast = system: T-47D breast
# UO-31 renal = system: UO-31 renal
# OVCAR-8 ovarian = system: OVCAR-8 ovarian
# RXF 393 renal = system: RXF 393 renal
# ACHN renal = system: ACHN renal
# LOX IMVI melanoma = system: LOX IMVI melanoma
# SK-MEL-28 melanoma = system: SK-MEL-28 melanoma
# SN12C renal = system: SN12C renal
# A498 renal = system: A498 renal
# OVCAR-3 ovarian = system: OVCAR-3 ovarian
# NCI-H460 NSCLC = system: NCI-H460 NSCLC
# OVCAR-5 ovarian = system: OVCAR-5 ovarian
# NCI-H23 lung = system: NCI-H23 lung
# MDA-MB-231 breast = system: MDA-MB-231 breast
# HT29 colon = system: HT29 colon
# 786-0 renal = system: 786-0 renal
# SK-MEL-2 melanoma = system: SK-MEL-2 melanoma
# HCC-2998 colon = system: HCC-2998 colon
# SK-MEL-5 melanoma = system: SK-MEL-5 melanoma
# HOP-92 NSCLC = system: HOP-92 NSCLC
# UACC-62 melanoma = system: UACC-62 melanoma
# COLO 205 colon = system: COLO 205 colon
# MDA-MB-468 breast = system: MDA-MB-468 breast
# U251 glioblastoma = system: U251 glioblastoma
# EKVX NSCLC = system: EKVX NSCLC
# IGROV1 ovarian = system: IGROV1 ovarian
# TK-10 renal = system: TK-10 renal
# A549 NSCLC = system: A549 NSCLC
# NCI-H322M lung = system: NCI-H322M lung
# KM12 colon = system: KM12 colon
smiles,measurement,setting,value
CO[C@@]12[C@H](COC(N)=O)C3=C(C(=O)C(C)=C(N)C3=O)N1C[C@@H]1N[C@@H]12,GI50,CCRF-CEM leukemia,0.108 µM
same,TGI,CCRF-CEM leukemia,0.257 µM
same,GI50,BT-549 breast,0.258 µM
same,TGI,BT-549 breast,1.89 µM
same,GI50,DU-145 prostate,0.0447 µM
same,TGI,DU-145 prostate,0.208 µM
same,GI50,SK-OV-3 ovarian,0.137 µM
same,TGI,SK-OV-3 ovarian,0.77 µM
same,GI50,PC-3 prostate,2.34 µM
same,TGI,PC-3 prostate,9.94 µM
same,GI50,SW-620 colon,0.145 µM
same,TGI,SW-620 colon,1.85 µM
same,GI50,HCT-15 colon,0.328 µM
same,TGI,HCT-15 colon,2.17 µM
same,GI50,HOP-62 NSCLC,0.0387 µM
same,TGI,HOP-62 NSCLC,0.213 µM
same,GI50,NCI-H522 lung,0.276 µM
same,TGI,NCI-H522 lung,1.37 µM
same,GI50,OVCAR-4 ovarian,2.27 µM
same,TGI,OVCAR-4 ovarian,5.23 µM
same,GI50,MOLT-4 leukemia,0.0168 µM
same,TGI,MOLT-4 leukemia,0.0311 µM
same,GI50,HS 578T breast,3.26 µM
same,TGI,HS 578T breast,7.5 µM
same,GI50,HCT-116 colon,0.0823 µM
same,TGI,HCT-116 colon,1.36 µM
same,GI50,M14 melanoma,0.0974 µM
same,TGI,M14 melanoma,1.19 µM
same,GI50,CAKI-1 renal,0.226 µM
same,TGI,CAKI-1 renal,1.64 µM
same,GI50,NCI/ADR-RES ovarian,5.8 µM
same,TGI,NCI/ADR-RES ovarian,> 43 µM
same,GI50,NCI-H226 lung,0.553 µM
same,TGI,NCI-H226 lung,3.25 µM
same,GI50,MALME-3M melanoma,0.576 µM
same,TGI,MALME-3M melanoma,1.96 µM
same,GI50,MDA-MB-435 melanoma,1.71 µM
same,TGI,MDA-MB-435 melanoma,8.72 µM
same,GI50,K-562 leukemia,0.914 µM
same,TGI,K-562 leukemia,2.83 µM
same,GI50,UACC-257 melanoma,0.914 µM
same,TGI,UACC-257 melanoma,2.95 µM
same,GI50,SR leukemia,0.0135 µM
same,TGI,SR leukemia,0.0281 µM
same,GI50,MCF7 breast,0.0947 µM
same,TGI,MCF7 breast,2.87 µM
same,GI50,HL-60(TB) leukemia,0.0178 µM
same,TGI,HL-60(TB) leukemia,0.041 µM
same,GI50,RPMI-8226 leukemia,0.161 µM
same,TGI,RPMI-8226 leukemia,0.675 µM
same,GI50,T-47D breast,1.6 µM
same,TGI,T-47D breast,11.2 µM
same,GI50,UO-31 renal,1.13 µM
same,TGI,UO-31 renal,4.71 µM
same,GI50,OVCAR-8 ovarian,0.439 µM
same,TGI,OVCAR-8 ovarian,4.6 µM
same,GI50,RXF 393 renal,1.6 µM
same,TGI,RXF 393 renal,3.19 µM
same,GI50,ACHN renal,0.169 µM
same,TGI,ACHN renal,0.844 µM
same,GI50,LOX IMVI melanoma,0.159 µM
same,TGI,LOX IMVI melanoma,1.3 µM
same,GI50,SK-MEL-28 melanoma,1.24 µM
same,TGI,SK-MEL-28 melanoma,5.21 µM
same,GI50,SN12C renal,0.0989 µM
same,TGI,SN12C renal,3.16 µM
same,GI50,A498 renal,0.179 µM
same,TGI,A498 renal,0.932 µM
same,GI50,OVCAR-3 ovarian,1.32 µM
same,TGI,OVCAR-3 ovarian,3.77 µM
same,TGI,NCI-H460 NSCLC,0.11 µM
same,GI50,OVCAR-5 ovarian,1.12 µM
same,TGI,OVCAR-5 ovarian,4.35 µM
same,GI50,NCI-H23 lung,0.046 µM
same,TGI,NCI-H23 lung,0.162 µM
same,GI50,MDA-MB-231 breast,4.01 µM
same,TGI,MDA-MB-231 breast,10.7 µM
same,GI50,HT29 colon,0.368 µM
same,TGI,HT29 colon,2.25 µM
same,GI50,786-0 renal,0.261 µM
same,TGI,786-0 renal,3.69 µM
same,GI50,SK-MEL-2 melanoma,1.25 µM
same,TGI,SK-MEL-2 melanoma,2.68 µM
same,GI50,HCC-2998 colon,0.236 µM
same,TGI,HCC-2998 colon,1.38 µM
same,GI50,SK-MEL-5 melanoma,0.0405 µM
same,TGI,SK-MEL-5 melanoma,0.102 µM
same,GI50,HOP-92 NSCLC,1.85 µM
same,TGI,HOP-92 NSCLC,6.78 µM
same,GI50,UACC-62 melanoma,0.1 µM
same,TGI,UACC-62 melanoma,1.15 µM
same,GI50,COLO 205 colon,0.25 µM
same,TGI,COLO 205 colon,1.89 µM
same,GI50,MDA-MB-468 breast,0.0718 µM
same,TGI,MDA-MB-468 breast,0.212 µM
same,GI50,U251 glioblastoma,0.111 µM
same,TGI,U251 glioblastoma,1.5 µM
same,GI50,EKVX NSCLC,4.52 µM
same,TGI,EKVX NSCLC,11.5 µM
same,GI50,IGROV1 ovarian,1.03 µM
same,TGI,IGROV1 ovarian,2.63 µM
same,GI50,TK-10 renal,1.72 µM
same,TGI,TK-10 renal,13.1 µM
same,GI50,A549 NSCLC,0.0929 µM
same,TGI,A549 NSCLC,1.06 µM
same,GI50,NCI-H322M lung,0.401 µM
same,TGI,NCI-H322M lung,1.45 µM
same,GI50,KM12 colon,0.582 µM
same,TGI,KM12 colon,3.6 µM
